Values of other authors as cited in article PMC7027746 (Clinical Pharmacology in Drug Development, 2019).

Columns and labels:
[1] = single 180‐mg oral dose of [14C]‐brigatinib, healthy volunteers; cited from earlier work
ALK = settings: in vitro; cited from earlier work

In the case of COc1cc(N2CCC(N3CCNCC3)CC2)ccc1Nc1ncc(Cl)c(Nc2ccccc2P(C)(C)=O)n1 [N‐desmethyl brigatinib], the “share of circulating radioactive components” value [1] is listed as 3.5% and the “ALK inhibition potency, fold lower than brigatinib” value (ALK) is listed as “approximately 3 fold”.
